Experimental data published in patent US4053604A (priority 1975, dated 1977).
“Also recorded” adds a separate entry of the source.

Columns and labels:
[1] = induction time of rats exposed to halothane anesthesia (loss of righting reflex); format: in vivo, male albino rats (Sprague-Dawley)
Description: (§1) The effects of Compound I on halothane-induced anesthesia were assessed using 20 rats for each dose or time interval determination. The experiments were performed on male albino rats (Sprague-Dawley) weighing from 180-220 g. A schematic representation of the apparatus used is illustrated in FIG. 1. The apparatus consists of a rectangular box made of transparent plastic (115 cm long × 28 cm high × 28 cm wide) which is divided into 4 equal chambers by perforated walls. The box rotates around a hollow axis through which gases can be delivered at several proportions from cylinders, through their respective flowmeters. An in-line halothane vaporizer is placed just before the gases reach the chambers. There is an air-tight door to every chamber through which two animals, one treated and one control, are introduced. The gases are delivered at one end of the box and suction is applied to the other end to take up the gases after flowing through the chambers. An in-line water manometer monitors the resulting pressure. This pressure is kept at 0-5 mm H2 O to make certain the gases in the anesthetic chambers remain at atmospheric pressure. The mixture of gases is delivered at a rate of 15 l/min. The inhalation anesthetic gases are delivered for ten minutes prior to the introduction of the animals into the chambers to assure an even distribution in the four chambers. The chambers rotate at four rev/min forcing the animals to tumble and allowing the experimenter to accurately time the loss and recovery of the righting reflex. Induction times are recorded as the time interval elapsed between the beginning of exposure of the animals to the gases and the moment in which they lose their righting reflex.
(§2) Groups of control animals (four at a time) were subjected to halothane concentrations ranging from 0.5 to 2.5% in a mixture of 95% O2 -5% CO2, and the induction times thus obtained were used to calculate concentration-reponse curves. Since a certain time elapsed between putting the first and the last rat into their respective chambers, each animal was timed separately with a stopwatch. […] This intermediate concentration of halothane was then used to study the effects of increasing doses of the test compound on the induction times and anesthesia times.
(§3) The animals were pretreated by administering the test compounds in dosages ranging from 10 to 500 μg/kg, i.v., at 5, 30, 60, 120, 240 and 360 minutes prior to their exposure to halothane. As soon as all animals lost their righting reflex, the O2 -halothane flow was discontinued and replaced by an equal flow of air. The animals were allowed to remain in the rotating chambers until they regained their righting reflex. Anesthesia times were determined as the interval between the time required to lose and the time to regain the righting reflex. Air flushing of the anesthetic chambers was performed after each determination and the entire procedure repeated with another group of animals for the determination of the effect of a new dose or concentration.
(§4) Drugs used in this study include: droperidol, phenoperidine hydrochloride, halothane and Compound I in the form of its hydrochloride salt. Phenoperidine hydrochloride and Compound I (hydrochloride) were dissolved separately in a warm solution of 0.9% sodium chloride. Droperidol was suspended in saline with the aid of a drop ot Tween 80 (Tween 80 is a registered trademark for a complex mixture of polyoxyethylene ethers of mixed partial oleic esters of sorbitol anhydride). Dosages are expressed in this study as the salt form of the compound where applicable. When the experimental protocol called for the concomitant administration of two drugs, these were mixed in the syringe and administered intravenously. The drugs were injected in a volume of 0.1 ml/100 g body weight.
(§5) The statistical analysis of the data was performed using Student's […]. […]

[2] = anesthesia time of rats exposed to halothane anesthesia (recovery of righting reflex); format: in vivo, male albino rats (Sprague-Dawley)
Description: as §1, §2, §3, §4, §5

[3] = 10 μg/kg i.v., 5 min before 0.75% halothane
[4] = 10 μg/kg i.v., 5 min before 1.0% halothane
[5] = 10 μg/kg i.v., 5 min before 1.5% halothane
[6] = 10 μg/kg i.v., 5 min before 2.0% halothane
[7] = 10 μg/kg i.v., 5 min before 2.5% halothane
[8] = 25 μg/kg i.v., 5 min before 0.75% halothane
[9] = 25 μg/kg i.v., 5 min before 1.0% halothane
[10] = 25 μg/kg i.v., 5 min before 1.5% halothane
[11] = 25 μg/kg i.v., 5 min before 2.0% halothane
[12] = 25 μg/kg i.v., 5 min before 2.5% halothane
[13] = 50 μg/kg i.v., 5 min before 0.75% halothane
[14] = 50 μg/kg i.v., 5 min before 1.0% halothane
[15] = 50 μg/kg i.v., 5 min before 1.5% halothane
[16] = 50 μg/kg i.v., 5 min before 2.0% halothane
[17] = 50 μg/kg i.v., 5 min before 2.5% halothane
[18] = 100 μg/kg i.v., 5 min before 0.75% halothane
[19] = 100 μg/kg i.v., 5 min before 1.0% halothane
[20] = 100 μg/kg i.v., 5 min before 1.5% halothane
[21] = 100 μg/kg i.v., 5 min before 2.0% halothane
[22] = 100 μg/kg i.v., 5 min before 2.5% halothane
[23] = 200 μg/kg i.v., 5 min before 0.75% halothane
[24] = 200 μg/kg i.v., 5 min before 1.0% halothane
[25] = 200 μg/kg i.v., 5 min before 1.5% halothane
[26] = 200 μg/kg i.v., 5 min before 2.0% halothane
[27] = 200 μg/kg i.v., 5 min before 2.5% halothane
[28] = 250 μg/kg i.v., 5 min before 0.75% halothane
[29] = 250 μg/kg i.v., 5 min before 1.0% halothane
[30] = 250 μg/kg i.v., 5 min before 1.5% halothane
[31] = 250 μg/kg i.v., 5 min before 2.0% halothane
[32] = 250 μg/kg i.v., 5 min before 2.5% halothane

With CC(C)[C@@]1(O)CCN2C[C@@H]3c4ccccc4CCc4cccc(c43)[C@H]2C1 [Compound 1, (+)(4a,13b-trans)-(3-hydroxy,13b-trans)-3-isopropyl-2,- 3,4,4a,8,9,13b,14-octahydro-lH-benzo[6,7]cyclohepta[1,2,3-de]pyrido[2,1-a]isoquinolin-3-ol] the “Induction time, treated” value [1, 3] was 6.66 min, the “Induction time, treated” value [1, 4] was 2.67 min and the “Induction time, treated” value [1, 5] was 1.32 min. The “Induction time, treated” value [1, 6] was 0.72 min, the “Induction time, treated” value [1, 7] was 0.57 min and the “Induction time, treated” value [1, 8] was 6.30 min. The “Induction time, treated” value [1, 9] was 1.86 min, the “Induction time, treated” value [1, 10] was 1.02 min and the “Induction time, treated” value [1, 11] was 0.71 min. The “Induction time, treated” value [1, 12] was 0.58 min, the “Induction time, treated” value [1, 13] was 5.77 min and the “Induction time, treated” value [1, 14] was 1.62 min. The “Induction time, treated” value [1, 15] was 1.03 min, the “Induction time, treated” value [1, 16] was 0.75 min and the “Induction time, treated” value [1, 17] was 0.57 min. For the same compound, the “Induction time, treated” value [1, 18] was 4.05 min, the “Induction time, treated” value [1, 19] was 1.37 min and the “Induction time, treated” value [1, 20] was 1.13 min. The “Induction time, treated” value [1, 21] was 0.69 min, the “Induction time, treated” value [1, 22] was 0.54 min and the “Induction time, treated” value [1, 23] was 3.48 min. The “Induction time, treated” value [1, 24] was 1.31 min, the “Induction time, treated” value [1, 25] was 1.03 min and the “Induction time, treated” value [1, 26] was 0.64 min. For the same compound, the “Induction time, treated” value [1, 27] was 0.57 min, the “reduction of induction time” value ([1]; 200 μg/kg, i.v., 1% halothane) was “approximately 50%” and the “Induction time, treated” value [1, 28] was 3.72 min. The “Induction time, treated” value [1, 29] was 1.67 min, the “Induction time, treated” value [1, 30] was 0.91 min and the “Induction time, treated” value [1, 31] was 0.67 min. For the same compound, the “Induction time, treated” value [1, 32] was 0.60 min, the “maximum decrease in induction time” value ([1]; Compound 1 (hydrochloride) alone, i.v., 5 min before 1% halothane (FIG. 2)) was 45% and the “effect on induction time for the anesthetic” value ([1]; administered prior to anesthetic treatment, in words, listed as Compound I) was “decreased considerably; also recorded: substantially reduced”. The “decrease in induction time, with phenoperidine” value ([1]; plus 25 μg/kg, i.v., phenoperidine hydrochloride, 1% halothane (FIG. 2)) was “about 65%”, the “Anesthesia time, treated” value [2, 3] was 3.67 min and the “Anesthesia time, treated” value [2, 4] was 3.16 min. The “Anesthesia time, treated” value [2, 5] was 3.84 min, the “Anesthesia time, treated” value [2, 6] was 4.68 min and the “Anesthesia time, treated” value [2, 7] was 5.42 min. The “Anesthesia time, treated” value [2, 8] was 3.78 min, the “Anesthesia time, treated” value [2, 9] was 3.62 min and the “Anesthesia time, treated” value [2, 10] was 4.61 min. For the same compound, the “Anesthesia time, treated” value [2, 11] was 5.09 min, the “Anesthesia time, treated” value [2, 12] was 5.26 min and the “Anesthesia time, treated” value [2, 13] was 5.16 min. For the same compound, the “Anesthesia time, treated” value [2, 14] was 4.67 min, the “Anesthesia time, treated” value [2, 15] was 4.59 min and the “Anesthesia time, treated” value [2, 16] was 4.49 min. For the same compound, the “Anesthesia time, treated” value [2, 17] was 4.96 min, the “Anesthesia time, treated” value [2, 18] was 6.33 min and the “Anesthesia time, treated” value [2, 19] was 5.34 min. For the same compound, the “Anesthesia time, treated” value [2, 20] was 4.79 min, the “Anesthesia time, treated” value [2, 21] was 5.49 min and the “Anesthesia time, treated” value [2, 22] was 5.62 min. For the same compound, the “Anesthesia time, treated” value [2, 23] was 6.54 min, the “Anesthesia time, treated” value [2, 24] was 5.37 min and the “Anesthesia time, treated” value [2, 25] was 4.94 min. For the same compound, the “Anesthesia time, treated” value [2, 26] was 5.33 min, the “Anesthesia time, treated” value [2, 27] was 5.89 min and the “Anesthesia time, treated” value [2, 28] was 6.26 min. For the same compound, the “Anesthesia time, treated” value [2, 29] was 5.81 min, the “Anesthesia time, treated” value [2, 30] was 5.52 min and the “Anesthesia time, treated” value [2, 31] was 5.92 min. The “Anesthesia time, treated” value [2, 32] was 6.37 min, the “Anesthesia time, treated” value ([2]; 500 μg/kg i.v., 5 min before 1.0% halothane) was 5.69 min and the “increase of anesthesia time” value ([2]; five minutes after i.v. administration, 1% halothane) was “approximately 70%”. For the same compound, the “effect on anesthesia time” value ([2]; halothane, in words) was “increased considerably” and the “duration of anesthesia effect with added analgesic” value ([2]; plus 25 μg/kg i.v. phenoperidine hydrochloride, 1% halothane (FIG. 3), in words) was “potentiates the duration of anesthesia effect”.
